Values joined by “and” are separate entries in the source; they are usually repeats but may differ in a detail not shown here. Equal entries are not always repeated. Numbers after ± are expanded uncertainties.
Settings: Liquid; for mass density: 101.33 kPa, Pycnometric method; for speed of sound: Pulse-echo method

CC(C)CCCCCCCOC(=O)c1ccccc1C(=O)OCCCCCCCC(C)C
Settings | mass density
273.84 K | 980.22 ± 0.39 kg/m3
274.06 K | 980.07 ± 0.39 kg/m3
274.07 K | 980.08 ± 0.39 kg/m3
274.35 K | 979.86 ± 0.39 kg/m3
282.95 K | 973.75 ± 0.38 kg/m3
298.25 K | 962.88 ± 0.36 kg/m3
298.28 K | 962.83 ± 0.37 kg/m3
305.26 K | 957.83 ± 0.37 kg/m3
313.27 K | 952.21 ± 0.38 kg/m3 and 952.15 ± 0.38 kg/m3
333.28 K | 937.93 ± 0.4 kg/m3
353.29 K | 923.76 ± 0.43 kg/m3
373.29 K | 909.62 ± 0.46 kg/m3
393.31 K | 895.47 ± 0.48 kg/m3
413.33 K | 881.29 ± 0.51 kg/m3

Settings | speed of sound [m/s]
293.06 K, 1185 kPa | 1436.6 ± 3
298.08 K, 1100 kPa | 1419.9 ± 3
298.08 K, 5400 kPa | 1439 ± 3
298.08 K, 10180 kPa | 1459.7 ± 3
298.08 K, 16980 kPa | 1488 ± 3.1
298.08 K, 25560 kPa | 1522 ± 3.2
298.08 K, 32760 kPa | 1549.3 ± 3.2
298.08 K, 40150 kPa | 1576.5 ± 3.3
298.08 K, 47800 kPa | 1602.9 ± 3.3
298.08 K, 55510 kPa | 1629.7 ± 3.4
298.08 K, 62350 kPa | 1652.4 ± 3.4
313.18 K, 1050 kPa | 1367.8 ± 2.9
313.18 K, 1110 kPa | 1367.9 ± 2.9
313.18 K, 15410 kPa | 1432.5 ± 3
313.18 K, 29860 kPa | 1491.8 ± 3.1
313.18 K, 44860 kPa | 1548.5 ± 3.2
313.18 K, 60370 kPa | 1602.9 ± 3.3
313.18 K, 75510 kPa | 1652.4 ± 3.4
313.18 K, 89970 kPa | 1697 ± 3.5
313.18 K, 105660 kPa | 1742.8 ± 3.6
313.18 K, 119950 kPa | 1782.4 ± 3.7
333.24 K, 1100 kPa | 1304.1 ± 2.7
333.24 K, 1130 kPa | 1304.1 ± 2.7
333.24 K, 14910 kPa | 1370.1 ± 2.9
333.24 K, 29760 kPa | 1434.3 ± 3
333.24 K, 45000 kPa | 1494.4 ± 3.1
333.24 K, 60580 kPa | 1551.1 ± 3.2
333.24 K, 75550 kPa | 1601.7 ± 3.3
333.24 K, 90480 kPa | 1649.2 ± 3.4
333.24 K, 105430 kPa | 1694 ± 3.5
333.24 K, 120280 kPa | 1736.3 ± 3.6
333.24 K, 139660 kPa | 1788.5 ± 3.7
353.18 K, 1010 kPa | 1241.9 ± 2.6
353.18 K, 1280 kPa | 1243.1 ± 2.7
353.18 K, 10060 kPa | 1288.5 ± 2.7
353.18 K, 19830 kPa | 1335.3 ± 2.8
353.18 K, 29890 kPa | 1380.3 ± 2.9
353.18 K, 40170 kPa | 1423.1 ± 3
353.18 K, 50230 kPa | 1462.7 ± 3
353.18 K, 60350 kPa | 1500.4 ± 3.1
353.18 K, 70310 kPa | 1535.6 ± 3.2
353.18 K, 80170 kPa | 1569 ± 3.2
353.18 K, 90020 kPa | 1601 ± 3.3
353.18 K, 104640 kPa | 1646 ± 3.4
353.18 K, 122120 kPa | 1697.1 ± 3.5
353.18 K, 139450 kPa | 1745 ± 3.6
373.1 K, 460 kPa | 1179.1 ± 2.5
373.1 K, 1150 kPa | 1183.1 ± 2.5
373.1 K, 1350 kPa | 1184.4 ± 2.5
373.1 K, 10370 kPa | 1233.7 ± 2.6
373.1 K, 20030 kPa | 1282.4 ± 2.7
373.1 K, 29930 kPa | 1328.6 ± 2.8
373.1 K, 40300 kPa | 1373.8 ± 2.9
373.1 K, 50050 kPa | 1413.5 ± 2.9
373.1 K, 60040 kPa | 1452 ± 3
373.1 K, 70060 kPa | 1488.7 ± 3.1
373.1 K, 80050 kPa | 1523.7 ± 3.2
373.1 K, 90060 kPa | 1557.2 ± 3.2
373.1 K, 100440 kPa | 1590.2 ± 3.3
373.1 K, 110260 kPa | 1620.7 ± 3.3
373.1 K, 120180 kPa | 1649.7 ± 3.4
373.1 K, 130570 kPa | 1679.6 ± 3.5
373.1 K, 140300 kPa | 1707 ± 3.5
393.54 K, 1240 kPa | 1125.2 ± 2.4
393.54 K, 1280 kPa | 1125.4 ± 2.4
393.54 K, 14940 kPa | 1203.3 ± 2.5
393.54 K, 29730 kPa | 1277.1 ± 2.7
393.54 K, 44510 kPa | 1343.3 ± 2.8
393.54 K, 59690 kPa | 1404.8 ± 2.9
393.54 K, 75010 kPa | 1462 ± 3
393.54 K, 104930 kPa | 1563 ± 3.2
393.54 K, 122450 kPa | 1616.7 ± 3.3
393.54 K, 139770 kPa | 1666.6 ± 3.4
413.41 K, 1110 kPa | 1069.6 ± 2.3
413.41 K, 1130 kPa | 1069.8 ± 2.3
413.41 K, 14800 kPa | 1152.3 ± 2.5
413.41 K, 29640 kPa | 1229.8 ± 2.6
413.41 K, 45070 kPa | 1301.7 ± 2.7
413.41 K, 60270 kPa | 1365.4 ± 2.8
413.41 K, 75540 kPa | 1423.9 ± 3
413.41 K, 90150 kPa | 1476 ± 3.1
413.41 K, 105150 kPa | 1526 ± 3.2
413.41 K, 119720 kPa | 1571.9 ± 3.2
413.41 K, 139510 kPa | 1630.3 ± 3.4
